In paper PMC6895048, “4,5-Disubstituted 1,2,3-triazoles: Effective Inhibition of Indoleamine 2,3-Dioxygenase 1 Enzyme Regulates T cell Activity and Mitigates Tumor Growth” (Scientific Reports, 2019):

Key:
TDO enzyme = biological target: T1, TDO enzyme (Homo sapiens, UniProt P48775); experiment: HPLC based TDO inhibition assay; assay type: biochemical
T1 construct: 6xHis (N); made in house; host or cells: Escherichia coli BL21 (DE3) (pET 28a vector)
Description: (§1) HPLC based IDO1, and TDO inhibition assays were performed according to the earlier reported procedure[19],[27]–[30]. The reaction mixture (250 µL) contained KPB (100 mM, pH 6.5 for IDO1 and 50 mM, pH 8.0 for TDO), sodium ascorbate (20 mM), methylene blue (10 µM), catalase (240 nM, from bovine liver, Sigma), L-Trp (150 µM), purified enzyme (40 nM for IDO1 and 25 nM for TDO), DMSO (0.05%, v/v), Triton-X 100 (0.01%, v/v) and inhibitors. The concentration of the compound was varied from 100 µM to 32 nM by serial dilution. The mixture was incubated at 37 °C for 1 hour in the absence and presence of the synthesized compounds. The reaction was then quenched using 50 µL of 30% (w/v) trichloroacetic acid and incubated at 65 °C for additional 15 minutes to allow complete hydrolysis of N-formylkynurenine to kynurenine. After that, the mixture was centrifuged at 10,000 rpm for 10 minutes, and 100 µL of clear solution was transferred to another tube for HPLC analysis. Then, 20 µL of the reaction mixture was then injected through Ascentis® express C18, 2.7 µm HPLC column with a flow rate of 0.5 mL/minute of the mobile phase containing 50% sodium citrate buffer (40 mM, pH 2.25) and 50% methanol (v/v) with 400 µM SDS. The area under the curve at 365 nm chromatogram corresponding to the kynurenine formation was recorded, and % of inhibition was calculated using standard curve prepared with pure kynurenine (from Sigma) under similar experimental conditions.

[1] = Serum binding by Trp-fluorescence quenching; assay type: in vitro ADME, human; settings: qualitative; compared with compound 4i
Description: Tryptophan fluorescence measurements of the human serum were performed in the presence of compounds on a Fluoromax-4 spectrofluorometer at room temperature. For fluorescence measurements, 30 µL of 100% human serum and varying concentrations (0–220 µM) of compounds were incubated in 10 mM PBS buffer, pH 7.4. The solution was excited at 290 nm, and emission spectra were recorded from 300 to 560 nm. The resulting tryptophan emission spectra for each concentration of the compounds were plotted.

CD8+ T cells = experiment: T cell activity in breast tumor micro-environment (flow cytometry); assay type: cell-based, human; settings: 50 μM; for regulation of CD8+ T cells in tumor micro-environment: 20% MDA-MB-231 conditioned medium, 48 hours; for regulation of effector memory CD8+ T cells in tumor micro-environment: CCR7lowCD45RAlow phenotype
Description: We designed this study to evaluate the effects of IDO1 inhibition on cytotoxic T cells present in the breast tumor micro-environment. To mimic breast tumor micro-environment, we used 20% conditioned medium of human metastatic breast cancer cell line MDA-MB-231 with fresh RPMI and 10% FBS. Freshly isolated PBL cells were stimulated with PMA and ionomycin prior to culture in 20% conditioned medium and compounds at selected concentrations. Drug treatment was done for 48 hours followed by immunophenotyping by flow cytometry. For cell proliferation experiments freshly isolated PBLs were cultured in RPMI with 10% FBS and inhibitors for 48 hours. After that the cells were counted with hemocytometer. All the experiments were repeated thrice before analyzing data. The concentration of the compounds was 50 μM for all the T cell activity studies. All the T cell culture related experiments were conducted in the designated biosafety level facility available at the University of Calcutta.
Peripheral blood lymphocyte was isolated from freshly isolated blood samples of healthy volunteers in a previously described protocol. Briefly, blood was diluted with equal volume of sterile PBS and allowed in density gradient centrifugation over histopaque. Isolated PBLs were washed and cultured in RPMI medium with 10% FBS. Peripheral blood lymphocytes (PBLs) were isolated from fresh blood of healthy volunteers and cultured in RPMI medium with or without compound at selected concentration for 48 hours. Treatment of the compound uplifted cell proliferation. To evaluate whether 4,5-disubstituted 1,2,3-triazole regulate T cell activity, PBL was isolated and cultured at 20% conditioned medium of human metastatic breast cancer cell line MDA-MB-231. To perform this experiment PBL was isolated from three healthy volunteers and three independent experiments were performed. All the volunteers signed informed consent form[45],[49].
The T cells were activated according to standardized protocol published elsewhere. 100 ng/mL PMA and 1 μg/mL ionomycin were used to stimulate the T cells for 2 hrs. PBLs freshly cultured in RPMI with 10% FBS was added in the culture plate at 2 × 10^5 cells/ well and cultured at 37 °C with 5% CO2 for the duration of activation.
After treatment for given period of time the lymphocytes were analyzed for alteration of protein expression by flow cytometry according to previously published protocols. Briefly the cells were pelleted down resuspended in cell staining buffer. After cell counting cells were stained against PE-CD8 (Miltenyi Bioteh.), PerCP-Cy 5.5-CCR-7 (Miltenyi Bioteh.), APC-CD45RA (Miltenyi Bioteh.), VioBright-FITC-PD-1 (Miltenyi Bioteh.) antibodies as per the manufacturer recommended concentration and incubated in ice for given period of time. Post incubation, the cells were washed, suspended in cell staining buffer before data was acquired using FACS-Verse flow cytometer. The results were analyzed with FlowJo software (v X.0.7). The experiments were repeated thrice prior data analysis.

IDO1 [2] = biological target: T2, IDO1 (Homo sapiens, UniProt P14902); experiment: Kynurenine assay by HPLC analysis, IDO1; assay type: biochemical; parameters: made in house; host or cells: Escherichia coli M15 (pQE30 vector with pREP4 plasmid)
T2 sequence (P14902 whole entry): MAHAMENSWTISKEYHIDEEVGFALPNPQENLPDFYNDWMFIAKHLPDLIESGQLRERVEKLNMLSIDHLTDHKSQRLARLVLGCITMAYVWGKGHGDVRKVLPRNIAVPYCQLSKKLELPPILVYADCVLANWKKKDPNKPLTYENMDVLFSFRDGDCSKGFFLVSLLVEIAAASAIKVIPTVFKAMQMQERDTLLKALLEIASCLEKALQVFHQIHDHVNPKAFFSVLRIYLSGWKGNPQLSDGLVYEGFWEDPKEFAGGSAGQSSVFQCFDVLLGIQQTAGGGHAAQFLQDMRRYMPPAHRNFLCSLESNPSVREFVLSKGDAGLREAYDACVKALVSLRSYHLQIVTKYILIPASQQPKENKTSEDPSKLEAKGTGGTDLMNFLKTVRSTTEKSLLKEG
Description: as §1

IDO1 [3] = biological target: T2, IDO1; experiment: Determination of mode of enzyme inhibition (Lineweaver-Burk); assay type: biochemical; parameters: made in house; host or cells: Escherichia coli M15 (pQE30 vector with pREP4 plasmid); settings: for Ki: Km = 59.76 µM and Kcat = 6.18 sec-1; for Mode of IDO1 inhibition: with respect to L-Trp
Description: The mode of IDO1 enzyme inhibition was measured according to the reported spectrophotometric method. The assay was performed by varying both tryptophan concentration from 50 to 150 µM and inhibitor concentration from 32 nM to 4 µM. The amount of formation of N-formylkynurenine was recorded at different time intervals. The mode of enzyme inhibition was determined from the plot of 1/V against 1/[S], where V is the initial rate of the enzymatic reaction and [S] is the L-Trp concentration.

[4] = HPLC based IDO1 inhibition assay

T1 sequence (P48775 whole entry): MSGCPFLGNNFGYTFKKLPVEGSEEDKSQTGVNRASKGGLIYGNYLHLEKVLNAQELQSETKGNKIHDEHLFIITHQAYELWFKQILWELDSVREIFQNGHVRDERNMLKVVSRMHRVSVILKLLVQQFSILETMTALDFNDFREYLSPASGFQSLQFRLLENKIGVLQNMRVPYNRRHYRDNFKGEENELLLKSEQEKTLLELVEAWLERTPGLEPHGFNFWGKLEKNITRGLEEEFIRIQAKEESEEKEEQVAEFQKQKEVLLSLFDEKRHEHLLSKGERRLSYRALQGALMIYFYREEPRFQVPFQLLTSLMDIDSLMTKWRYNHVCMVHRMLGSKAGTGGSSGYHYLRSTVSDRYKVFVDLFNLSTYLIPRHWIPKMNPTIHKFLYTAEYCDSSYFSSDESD

| % Of inhibition for TDO enzyme (TDO enzyme; 32 nM) | % Of inhibition for TDO enzyme (TDO enzyme; 160 nM) | % Of inhibition for TDO enzyme (TDO enzyme; 800 nM) | % Of inhibition for TDO enzyme (TDO enzyme; 4 µM) | % Of inhibition for TDO enzyme (TDO enzyme; 20 µM) | % Of inhibition for TDO enzyme (TDO enzyme; 100 µM) | interaction with human serum proteins (Trp-fluorescence quenching) [1] | IC50 (IDO1 [2]; [4]) | % Of inhibition for IDO1 enzyme (IDO1 [2]; HPLC, 32 nM) | % Of inhibition for IDO1 enzyme (IDO1 [2]; HPLC, 160 nM) | % Of inhibition for IDO1 enzyme (IDO1 [2]; HPLC, 800 nM) | % Of inhibition for IDO1 enzyme (IDO1 [2]; HPLC, 4 µM) | % Of inhibition for IDO1 enzyme (IDO1 [2]; HPLC, 20 µM) | % Of inhibition for IDO1 enzyme (IDO1 [2]; HPLC, 100 µM) | Ki (IDO1 [3]) | Mode of IDO1 inhibition (IDO1 [3]) | IC50 (IDO1 [2]; kynurenine assay) | Structure (SMILES) | PD-1 expression on CD8+ T cells in tumor micro-environment (CD8+ T cells) | regulation of CD8+ T cells in tumor micro-environment (CD8+ T cells) | regulation of effector memory CD8+ T cells in tumor micro-environment (CD8+ T cells) | other results |
| --- | --- | --- | --- | --- | --- | --- | --- | --- | --- | --- | --- | --- | --- | --- | --- | --- | --- | --- | --- | --- | --- |
| 34% | 47% | 49% | 65% | 63% | 83% | more strongly | 396 ± 10 nM | 21% | 29% | 59% | 60% | 78% | 80% | 241 ± 38 nM | competitive |  | CCOC(=O)c1n[nH]nc1-c1ccc(F)c(F)c1 [Compound 2i] | Down-regulation | Up-regulation | Up-regulation |  |
| 10% | 18% | 21% | 18% | 37% | 52% | more strongly | 119 ± 13 nM | 27% | 48% | 69% | 76% | 84% | 83% | 160 ± 15 nM | competitive |  | NC(=O)c1n[nH]nc1-c1ccc(F)c(F)c1 [Compound 3i] | Down-regulation | Up-regulation | Up-regulation |  |
| 15% | 25% | 26% | 50% | 66% | 73% |  | 114 ± 10 nM | 13% | 34% | 52% | 68% | 79% | 84% | 258 ± 22 nM | competitive | 60 to 115 nM | O=C(N/C(Cc1ccc(O)cc1)=N\O)c1n[nH]nc1-c1ccc(F)c(F)c1 [Compound 4i] | Down-regulation | Up-regulation | Up-regulation |  |
|  |  |  |  |  |  | more strongly | 59 ± 6 nM |  |  |  |  |  |  | 98 ± 11 nM | competitive | 60 to 115 nM | NS(=O)(=O)NCCNC(=O)c1n[nH]nc1-c1ccc(F)c(F)c1 [Compound 4k] | Down-regulation | Up-regulation | Up-regulation | inhibition at 0.032 µM (TDO enzyme; 32 nM): 13%; inhibition at 0.16 µM (TDO enzyme; 160 nM): 24%; inhibition at 0.8 µM (TDO enzyme; 800 nM): 46%; inhibition at 4 µM (TDO enzyme; 4 µM): 58%; inhibition at 20 µM (TDO enzyme; 20 µM): 63%; inhibition at 100 µM (TDO enzyme; 100 µM): 68%; inhibition at 0.032 µM (IDO1 [2]; HPLC, 32 nM): 14%; inhibition at 0.16 µM (IDO1 [2]; HPLC, 160 nM): 45%; inhibition at 0.8 µM (IDO1 [2]; HPLC, 800 nM): 69%; inhibition at 4 µM (IDO1 [2]; HPLC, 4 µM): 77%; inhibition at 20 µM (IDO1 [2]; HPLC, 20 µM): 86%; inhibition at 100 µM (IDO1 [2]; HPLC, 100 µM): 84% |
